# Results: EP4707277A1, “NOVEL HETEROCYCLIC AMINE DERIVATIVES AND PHARMACEUTICAL COMPOSITION COMPRISING SAME” (Daewoong Pharmaceutical Co., Ltd., priority 2023, dated 2024)
# Like-named read-outs stand apart in the source and are kept apart here.
# Key:
# BTK = molecular target: T1, BTK (Homo sapiens, UniProt Q06187); test: Inhibitory activity against BTK, ADP-Glo Kinase system (Promega); format: biochemical
# T1 construct: purchased Signalchem B10-10H
# How it was run: (§1)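 IC50 values were fitted from kinase reactions run for 1 h at 30°C with either 1 mM ATP or ATP at Km (10 µM for BTK, 25 µM for ITK). Reactions used 0.2 µg/µl poly(Glu4,Tyr1), recombinant human enzyme (BTK 10 ng, ITK 4 ng per reaction) in Tris pH 7.5 Mn/Mg buffer with 1% DMSO. ADP formed was read by ADP-Glo luminescence.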
# ITK = molecular target: T2, ITK (Homo sapiens, UniProt Q08881); test: Inhibitory activity against ITK, ADP-Glo Kinase system (Promega); format: biochemical
# T2 construct: purchased Signalchem I13-11G-10
# T2 sequence (Q08881 1-620): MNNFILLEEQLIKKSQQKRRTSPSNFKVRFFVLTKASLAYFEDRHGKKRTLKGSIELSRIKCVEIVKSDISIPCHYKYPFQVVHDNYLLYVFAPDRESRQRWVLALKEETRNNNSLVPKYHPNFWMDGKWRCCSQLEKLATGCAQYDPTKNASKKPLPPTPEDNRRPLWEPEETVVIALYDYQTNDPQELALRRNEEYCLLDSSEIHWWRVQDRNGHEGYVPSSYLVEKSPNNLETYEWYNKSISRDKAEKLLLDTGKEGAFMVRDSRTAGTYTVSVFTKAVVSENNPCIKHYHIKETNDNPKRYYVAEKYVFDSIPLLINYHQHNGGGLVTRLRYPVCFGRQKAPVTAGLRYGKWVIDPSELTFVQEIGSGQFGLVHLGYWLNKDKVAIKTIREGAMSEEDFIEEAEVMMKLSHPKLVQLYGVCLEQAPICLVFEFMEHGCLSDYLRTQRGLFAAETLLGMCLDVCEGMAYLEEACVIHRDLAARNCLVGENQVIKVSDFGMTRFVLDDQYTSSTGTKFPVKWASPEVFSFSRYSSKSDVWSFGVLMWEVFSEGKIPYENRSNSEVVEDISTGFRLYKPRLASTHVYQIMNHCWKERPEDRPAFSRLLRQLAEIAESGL
# How it was run: as §1
# [1] = 1mM ATP, read-out: BTK IC50(nM) 1mM ATP
# [2] = 1mM ATP, read-out: ITK IC50(nM) 1mM ATP
# [3] = Km ATP (BTK: 10 uM), read-out: BTK IC50(nM) Km ATP
# [4] = Km ATP (ITK: 25uM), read-out: ITK IC50(nM) Km ATP
# T1 sequence (Q06187 whole entry): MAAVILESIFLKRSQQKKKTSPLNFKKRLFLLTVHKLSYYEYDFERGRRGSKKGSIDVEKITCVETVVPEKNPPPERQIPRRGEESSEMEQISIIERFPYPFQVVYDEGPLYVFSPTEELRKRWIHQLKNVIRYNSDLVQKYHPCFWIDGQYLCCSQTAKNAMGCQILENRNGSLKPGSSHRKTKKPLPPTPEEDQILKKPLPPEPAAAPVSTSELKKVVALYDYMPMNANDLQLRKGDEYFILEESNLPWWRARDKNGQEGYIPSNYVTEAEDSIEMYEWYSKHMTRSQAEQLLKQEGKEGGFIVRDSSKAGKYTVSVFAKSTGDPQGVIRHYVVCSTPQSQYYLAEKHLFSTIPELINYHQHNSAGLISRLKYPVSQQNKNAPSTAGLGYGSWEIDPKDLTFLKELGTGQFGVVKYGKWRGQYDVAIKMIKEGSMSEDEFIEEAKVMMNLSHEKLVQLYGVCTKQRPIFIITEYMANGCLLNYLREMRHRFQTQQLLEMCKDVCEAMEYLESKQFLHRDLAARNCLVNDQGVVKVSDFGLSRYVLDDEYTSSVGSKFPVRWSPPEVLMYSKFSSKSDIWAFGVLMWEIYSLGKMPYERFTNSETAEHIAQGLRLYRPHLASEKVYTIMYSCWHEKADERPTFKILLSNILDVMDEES
IC50 (BTK; [1]),IC50 (ITK; [2]),IC50 (BTK; [3]),IC50 (ITK; [4]),SMILES
> 500 nM,> 500 nM,–,–,"C=C(F)C(=O)N1CC[C@H](Oc2nc(Nc3ncc(C)s3)cc3c2ccn3CC(C)C)C1 [Example 224, (S)-2-fluoro-1-(3-((1-isobutyl-6-((5-methylthiazol-2-yl)amino)-1H-pyrrolo[3,2-c]pyridin-4-yl)oxy)pyrrolidin-1-yl)prop-2-en-1-one]"
–,–,≤ 20 nM,≤ 20 nM,"C=CC(=O)N1C2C=C(c3nc(Nc4ncc(C)s4)cc4c3ccn4C(C)C)CC1CC2 (centres unmarked) [Example 29, 1-(3-(1-isopropyl-6-((5-methylthiazol-2-yl)amino)-1H-pyrrolo[3,2-c]pyridin-4-yl)-8-azabicyclo[3.2.1]oct-2-en-8-yl)prop-2-en-1-one]"
≤ 20 nM,≤ 20 nM,–,–,"C=CC(=O)N1CC[C@H](Oc2nc(Nc3ncc(C)s3)cc3c2ccn3CC2CCCCC2)C1 [Example 129, (S)-1-(3-((1-(cyclohexylmethyl)-6-((5-methylthiazol-2-yl)amino)-1H-pyrrolo[3,2-c]pyridin-4-yl)oxy)pyrrolidin-1-yl)prop-2-en-1-one]"
–,–,≤ 20 nM,≤ 20 nM,"C=CC(=O)Nc1ccc(F)c(-c2nc(Nc3ncc(C)s3)cc3c2ccn3CC2CCOC2)c1 (centres unmarked) [Example 71, N-(4-fluoro-3-(6-((5-methylthiazol-2-yl)amino)-1-((tetrahydrofuran-3-yl)methyl)-1H-pyrrolo[3,2-c]pyridin-4-yl)phenyl)acrylamide]"
–,–,≤ 20 nM,≤ 20 nM,"C=CC(=O)N1CC=C(c2nc(Nc3ncc(C)s3)cc3c2ccn3CCc2ccccc2)CC1 [Example 16, 1-(4-(6-((5-methylthiazol-2-yl)amino)-1-phenethyl-1H-pyrrolo[3,2-c]pyridin-4-yl)-3,6-dihydropyridin-1(2H)-yl)prop-2-en-1-one]"
–,–,≤ 20 nM,≤ 20 nM,"C=CC(=O)Nc1cc(-c2nc(Nc3ncc(C)s3)cc3c2ccn3C)ccc1C [Example 55, N-(2-methyl-5-(1-methyl-6-((5-methylthiazol-2-yl)amino)-1H-pyrrolo[3,2-c]pyridin-4-yl)phenyl)acrylamide]"
> 500 nM,> 500 nM,–,–,"C=CC(=O)N1CC[C@H](Oc2nc(Nc3nccc(OC)n3)cc3c2ccn3C(C)C)C1 [Example 183, (S)-1-(3-((1-isopropyl-6-((4-methoxypyrimidin-2-yl)amino)-1H-pyrrolo[3,2-c]pyridin-4-yl)oxy)pyrrolidin-1-yl)prop-2-en-1-one]"
≤ 20 nM,≤ 20 nM,–,–,"C=CC(=O)N1C[C@@H](F)[C@H](Oc2nc(Nc3ncc(C)s3)cc3c2ccn3CC(C)CC)C1 (stereo partly drawn) [Example 173, 1-((3R,4R)-3-fluoro-4-((1-(2-methylbutyl)-6-((5-methylthiazol-2-yl)amino)-1H-pyrrolo[3,2-c]pyridin-4-yl)oxy)pyrrolidin-1-yl)prop-2-en-1-one]"
≤ 20 nM,≤ 20 nM,–,–,"C=CC(=O)N1CCC[C@H](Oc2nc(Nc3ncc(C)s3)cc3c2ccn3CCOC)C1 [Example 148, (S)-1-(3-((1-(2-methoxyethyl)-6-((5-methylthiazol-2-yl)amino)-1H-pyrrolo[3,2-c]pyridin-4-yl)oxy)piperidin-1-yl)prop-2-en-1-one]"
≤ 20 nM,≤ 20 nM,–,–,"C=CC(=O)N1CC(Oc2nc(Nc3ncc(C)s3)cc3c2ccn3CCOC)C1 [Example 146, 1-(3-((1-(2-methoxyethyl)-6-((5-methylthiazol-2-yl)amino)-1H-pyrrolo[3,2-c]pyridin-4-yl)oxy)azetidin-1-yl)prop-2-en-1-one]"
≤ 20 nM,20 to 100 nM,≤ 20 nM,≤ 20 nM,"C=CC(=O)N1C2C=C(c3nc(Nc4ncc(C)s4)cc4c3ccn4CC(F)F)CC1CC2 (centres unmarked) [Example 34, 1-(3-(1-(2,2-difluoroethyl)-6-((5-methylthiazol-2-yl)amino)-1H-pyrrolo[3,2-c]pyridin-4-yl)-8-azabicyclo[3.2.1]oct-2-en-8-yl)prop-2-en-1-one]"
≤ 20 nM,≤ 20 nM,≤ 20 nM,≤ 20 nM,"C=CC(=O)N1C2C=C(c3nc(Nc4ncc(C)s4)cc4c3ccn4C)CC1CC2 (centres unmarked) [Example 28, 1-(3-(1-methyl-6-((5-methylthiazol-2-yl)amino)-1H-pyrrolo[3,2-c]pyridin-4-yl)-8-azabicyclo[3.2.1]oct-2-en-8-yl)prop-2-en-1-one]"
> 500 nM,> 500 nM,–,–,"C=CC(=O)N1C[C@H](F)[C@H](Oc2nc(Nc3cccn(C)c3=O)cc3c2ccn3CC(C)C)C1 [Example 199, 3-((4-(((3R,4S)-1-acryloyl-4-fluoropyrrolidin-3-yl)oxy)-1-isobutyl-1H-pyrrolo[3,2-c]pyridin-6-yl)amino)-1-methylpyridin-2(1H)-one]"
20 to 100 nM,20 to 100 nM,≤ 20 nM,≤ 20 nM,"C=CC(=O)N1CC=C(c2nc(Nc3ncc(C)s3)cc3c2ccn3C(C)C)CC1 [Example 2, 1-(4-(1-isopropyl-6-((5-methylthiazol-2-yl)amino)-1H-pyrrolo[3,2-c]pyridin-4-yl)-3,6-dihydropyridin-1(2H)-yl)prop-2-en-1-one]"
≤ 20 nM,≤ 20 nM,–,–,"C=CC(=O)N1CC[C@@H]1COc1nc(Nc2ncc(C)s2)cc2c1ccn2C(C)C [Example 90, (R)-1-(2-(((1-isopropyl-6-((5-methylthiazol-2-yl)amino)-1H-pyrrolo[3,2-c]pyridin-4-yl)oxy)methyl)azetidin-1-yl)prop-2-en-1-one]"
≤ 20 nM,20 to 100 nM,–,–,"C=CC(=O)N1CC[C@H](Oc2nc(Nc3cc(C)ncn3)cc3c2ccn3C(C)C)C1 [Example 101, (S)-1-(3-((1-isopropyl-6-((6-methylpyrimidin-4-yl)amino)-1H-pyrrolo[3,2-c]pyridin-4-yl)oxy)pyrrolidin-1-yl)prop-2-en-1-one]"
≤ 20 nM,20 to 100 nM,≤ 20 nM,≤ 20 nM,"C=CC(=O)Nc1cc(-c2nc(Nc3ncc(C)s3)cc3c2ccn3CC(C)C)c(F)cc1F [Example 67, N-(2,4-difluoro-5-(1-isobutyl-6-((5-methylthiazol-2-yl)amino)-1H-pyrrolo[3,2-c]pyridin-4-yl)phenyl)acrylamide]"
–,–,≤ 20 nM,≤ 20 nM,"C=CC(=O)N1CC(C)(Oc2nc(Nc3ncc(C)s3)cc3c2ccn3CC(C)C)C1 [Example 119, 1-(3-((1-isobutyl-6-((5-methylthiazol-2-yl)amino)-1H-pyrrolo[3,2-c]pyridin-4-yl)oxy)-3-methylazetidin-1-yl)prop-2-en-1-one]"
≤ 20 nM,≤ 20 nM,–,–,"C=CC(=O)N1CC(C)(Oc2nc(Nc3ncc(C)s3)cc3c2ccn3C(C)C)C1 [Example 163, 1-(3-((1-isopropyl-6-((5-methylthiazol-2-yl)amino)-1H-pyrrolo[3,2-c]pyridin-4-yl)oxy)-3-methylazetidin-1-yl)prop-2-en-1-one]"
≤ 20 nM,≤ 20 nM,–,–,"C=CC(=O)N1CC(C)(Oc2nc(Nc3ncc(C)s3)cc3c2ccn3C2CCCC2)C1 [Example 165, 1-(3-((1-cyclopentyl-6-((5-methylthiazol-2-yl)amino)-1H-pyrrolo[3,2-c]pyridin-4-yl)oxy)-3-methylazetidin-1-yl)prop-2-en-1-one]"
≤ 20 nM,≤ 20 nM,–,–,"C=CC(=O)N1C[C@H](F)[C@H](Oc2nc(Nc3ncc(C)s3)cc3c2ccn3CCC)C1 [Example 159, 1-((3S,4R)-3-fluoro-4-((6-((5-methylthiazol-2-yl)amino)-1-propyl-1H-pyrrolo[3,2-c]pyridin-4-yl)oxy)pyrrolidin-1-yl)prop-2-en-1-one]"
–,–,≤ 20 nM,≤ 20 nM,"C=CC(=O)N1CC=C(c2nc(Nc3ncc(C)s3)cc3c2ccn3C2CC2(F)F)CC1 (centres unmarked) [Example 20, 1-(4-(1-(2,2-difluorocyclopropyl)-6-((5-methylthiazol-2-yl)amino)-1H-pyrrolo[3,2-c]pyridin-4-yl)-3,6-dihydropyridin-1(2H)-yl)prop-2-en-1-one]"
–,–,≤ 20 nM,≤ 20 nM,"C=CC(=O)N1CC=C(c2nc(Nc3ncc(C)s3)cc3c2ccn3C(C)(C)C#N)CC1 [Example 22, 2-(4-(1-acryloyl-1,2,3,6-tetrahydropyridin-4-yl)-6-((5-methylthiazol-2-yl)amino)-1H-pyrrolo[3,2-c]pyridin-1-yl)-2-methylpropanenitrile]"
20 to 100 nM,≤ 20 nM,–,–,"Cc1cnc(Nc2cc3c(ccn3CC(C)C)c(O[C@@H]3CN(C(=O)CCl)C[C@@H]3F)n2)s1 [Example 229, 2-chloro-1-((3S,4R)-3-fluoro-4-((1-isobutyl-6-((5-methylthiazol-2-yl)amino)-1H-pyrrolo[3,2-c]pyridin-4-yl)oxy)pyrrolidin-1-yl)ethan-1-one]"
